The record followed here is patent US20100105707A1, “METHOD OF TREATING OR PREVENTING OXIDATIVE STRESS-RELATED DISEASE” (The United States of America, priority 2006, published 2010).

Data set [1] can be described thus: Water solubility in cold water. The class given is physicochemical. As for the experimental part:
Commercially available derivatives are obtained from Sigma-Aldrich (St. Louis, Mo.). The methods used for the synthesis of methyl- and sulfur-derivatives of uric acid are similar to those described previously (Beaman et al., J. Org. Chem., 27, 986-990 (1962) and Maruyama et al., Nucleosides, Nucleotides, Nucleic Acids, 19, 1193-1203 (2000)) and structures are confirmed by ^13C nuclear magnetic resonance (NMR) and ultra-violet (UV) spectral analyses. Uric acid analogs are assayed by high performance liquid chromatography (HPLC) and found to be of >97% purity.

Data set [2] is described as follows: Pharmacokinetics: plasma and brain levels after intravenous administration. Type of data set: in vivo, C57BL/6 mice. To be noted: mice. As to the method: Mice are administered intravenously 10 mg/kg ([…]) of uric acid as a reference compound and equimolar doses of its analogs (sUA4-2,6,8 trithio uric acid, 12.9 mg/kg; mUA2-1,7 dimethyl uric acid, 11.7 mg/kg; sUA2-6,8 dithio uric acid, 11.9 mg/kg). Three month-old male C57BL/6 mice are injected with a compound and are euthanized 15, 30, 60 or 120 min later (1 mouse/time point/compound). Blood and brain tissues are rapidly removed, frozen on dry ice and kept at −80° C. before quantification of uric acid analogs. Plasma and cerebral cortical tissues are extracted in 10 volumes of 0.5 M perchloric acid and 1 mM ethylenediamine tetraacetic acid (EDTA). Levels of uric acid analogs in the extracts are quantified by HPLC methods employing a 25 cm RP C18 column, 25 mM KH2PO4 buffer (pH=4.6) with 1 ml/min flow rate and UV diode array detection.
Mice that are administered mUA2, sUA2 or sUA4 intravenously are euthanized at increasing time points (15, 30, 60 and 120 min) and levels of the compounds in plasma and brain tissue are measured.

Data set [3] relates to cultured hippocampal neurons. The experiment in a line: Oxygen and glucose deprivation (OGD) of cultured hippocampal neurons. To be noted: compared to neurons in control cultures; FIG. 2. Type of data set: cell-based, rat. As to the method:
FIG. 2 illustrates that compounds of formula (I) protect cultured hippocampal neurons against ischemia-like conditions in an embodiment of the invention. Neuronal survival is quantified and values are the mean and SEM (n=8-10 cultures). *p<0.05 compared to the vehicle/OGD cultures. Synaptosomes are prepared from the cerebral cortex of 2-3 month-old adult male Sprague-Dawley rats and are cryopreserved using methods described previously (Begley et al., Brain Res. Protoc., 3, 76-82 (1998)). After thawing, cryopreserved synaptosomes are washed twice with Locke's buffer and plated in 24-well plates at a protein concentration of 250 μg per well. After a 30 min period to permit attachment of the synaptosomes to the substrate, synaptomoses are incubated for 1 h with compounds of formula (I) (1-10 μM), and then exposed for 4 h to freshly prepared 50 μM Fe^2+ (FeSO4). After an additional 30 min incubation in the presence of 10 μM dihydrorhodamine 123 (DHR), a probe for ROS which fluoresces when oxidized (Keller et al., J. Neurochem., 69, 273-284 (1997)), the synaptosomes are washed twice with Locke's buffer and levels of fluorescence are quantified using a fluorescence plate reader (488 nm excitation and 510 emission wavelengths). Fluorescence values for wells exposed to experimental treatments are expressed as a percentage of the mean value for untreated control wells. […] Methods for preparation and maintenance of cultures of PC12 cells and primary embryonic rat hippocampal neurons have been described previously (Furukawa et al., J. Neurosci., 17, 8178-8186 (1997) and Chan et al., J. Biol. Chem., 279, 28733-28743 (2004)). Cells are plated into polyethylenimine-coated plastic 96-well culture plates containing Neurobasal medium with B27 supplements. Experiments are performed in 7-8 day-old cultures (hippocampal neurons) or Dulbecco's modified eagle's medium (DMEM) with 10% fetal bovine serum (PC12 cells). […] Cell viability is quantified by counting viable neurons in premarked microscope fields prior to and following experimental treatment and then calculating percent survival.

Data set [4] relates to mouse model of focal ischemic stroke. The experiment in a line: Focal cerebral ischemia-reperfusion (middle cerebral artery occlusion) model. Type of data set: in vivo, C57BL/6 mice. To be noted: administered 1 h after ischemia onset. As to the method:
FIG. 4 illustrates that a compound of formula (I) improves functional outcome (e.g., ambulation) and reduces brain damage in a mouse model of focal ischemic stroke in an embodiment of the invention. In FIG. 4A neurological function is scored at 24, 48 and 72 hours post-stroke. In FIG. 4B infarct volume is quantified at 72 hours post-stroke. Values are the mean and SEM (n=8-12 mice). *p<0.001 compared to sham. +p<0.01 compared to vehicle.
FIG. 5 illustrates that compounds of formula (I) improve functional outcome and reduces brain damage in a mouse model of focal ischemic stroke in an embodiment of the invention. In FIG. 5A, neurological function is scored at 24, 48 and 72 hours post-stroke. In FIG. 5B, infarct volume is quantified at 72 hours post-stroke. Values are the mean and SEM (n=8-12 mice). *p<0.001 compared to sham. +p<0.01 compared to vehicle.
Three month-old male C57BL/6 mice are maintained on a 12 h light/12 h dark cycle with continuous access to food and water. The method for subjecting the mice to middle cerebral artery occlusion-reperfusion has been described previously (Arumugam et al., Am. J. Physiol. Heart Circ. Physiol., 287, H2555-2560 (2004)). Mice are anesthetized with isofluorane, a midline incision is made in the neck, and the left external carotid and pterygopalatine arteries are isolated and ligated with 5-0 silk thread. The internal carotid artery (ICA) is occluded at the peripheral site of the bifurcation of the internal carotid artery and the pterygopalatine artery with a small clip and the common carotid artery is ligated with 5-0 silk thread. The external carotid artery is cut, and a 6-0 nylon monofilament with a tip that is blunted (0.2-0.22 mm) with a coagulator is inserted into the external carotid artery. After the clip at the ICA is removed, the nylon thread is advanced into the middle cerebral artery until light resistance is felt. The nylon thread and the common carotid artery ligature are removed after 1 h of occlusion to initiate reperfusion. In the sham group, these arteries are visualized but not disturbed. Mice are administered either uric acid analogs of formula (I) or vehicle (dimethylsulfoxide) by infusion into the femoral vein (10 μl infused over a 2 min period) either 30 min prior to or 60 min after the onset of middle cerebral artery (MCA) occlusion. In a separate set of experiments anesthetized animals from all groups (4-6 mice per group) undergo cerebral blood flow (CBF) measurements using a laser Doppler perfusion monitor. All blood flow measurements are conducted with the mouse fixed in a plastic frame with the probe placed in the region of cerebral cortex perfused by the middle cerebral artery. These procedures are approved by the National Institute on Aging Animal Care and Use Committee.
The functional consequences of focal cerebral ischemia-reperfusion injury are evaluated by using a five-point neurological deficit score (0, no deficit; 1, failure to extend right paw; 2, circling to the right; 3, falling to the right; and 4, unable to walk spontaneously) and are assessed in a blinded fashion. At 72 h of reperfusion, the mice are killed with a lethal dose of isofluorane. The brains are immediately removed and placed into PBS (4° C.) for 15 min, and 2-mm coronal sections are cut with a tissue cutter. The brain sections are stained with 2% 2,3,5-triphenyltetrazolium chloride in phosphate buffer at 37° C. for 15 min. The stained sections are photographed, and the digitized images are used for analysis. The borders of the infarct in each brain slice are outlined and the area quantified using a NIH image 6.1 software. To correct for brain swelling, the infarct area is determined by subtracting the area of undamaged tissue in the left hemisphere from that of the intact contralateral hemisphere. Infarct volume is calculated by integration of infarct areas for all slices of each brain.

Data set [5] relates to skin wound. Description: Punch biopsy wound healing model. To be noted: single topical dose at time of wounding; on average; saline control greater than 13 days. Type of data set: in vivo, C57BL/6 mice. From the text:
A defined wound is created with a 4 mm Accuderm human punch biopsy kit (Accuderm, Ft Lauderdale, Fla.) in C57BL/6 mice. Specifically, the loose skin on the back of a mouse was brought together and, under anesthetic, a single punch was made through either side to create two wounds through the skin alone—without affecting underlying tissue. Immediately post-wounding, the wounds are either treated topically with normal saline (to serve as the non-treated control group) or with a compound of formula (I). Each day the wounds are digitally photographed and wound areas are determined by computer integration of the photographs. Wound area at the time of wounding (day 0) is arbitrarily set to a relative value of 1 for all wounds; such that subsequent wound areas are converted to relative wound areas by dividing the wound area at day n by the wound area at day zero.

Data set [6] has as its system ROS in cerebral cortex synaptosomes. Description: Synaptosome antioxidant assay (Fe2+-induced ROS, dihydrorhodamine 123). Type of data set: cell-based, Sprague-Dawley rats. To be noted: 1-10 μM, 1 h pretreatment, then 50 μM Fe2+ for 4 h; FIG. 1B. As for the experimental part: FIG. 1A depicts structures of uric acid and exemplary compounds of formula (I). FIG. 1B illustrates antioxidant activities of uric acid and compounds of formula (I) as quantified using a synaptosome assay in an embodiment of the invention. Levels of reactive oxygen species (ROS) are measured and values are expressed as a percentage of ROS present in Fe^2+-treated control synaptosomes (mean and SEM, n=4 experiments). *p<0.05, **p<0.01 compared to the control value.
Synaptosomes are prepared from the cerebral cortex of 2-3 month-old adult male Sprague-Dawley rats and are cryopreserved using methods described previously (Begley et al., Brain Res. Protoc., 3, 76-82 (1998)). After thawing, cryopreserved synaptosomes are washed twice with Locke's buffer and plated in 24-well plates at a protein concentration of 250 μg per well. […] After an additional 30 min incubation in the presence of 10 μM dihydrorhodamine 123 (DHR), a probe for ROS which fluoresces when oxidized (Keller et al., J. Neurochem., 69, 273-284 (1997)), the synaptosomes are washed twice with Locke's buffer and levels of fluorescence are quantified using a fluorescence plate reader (488 nm excitation and 510 emission wavelengths). Fluorescence values for wells exposed to experimental treatments are expressed as a percentage of the mean value for untreated control wells.

In data set [7] the test system is PC12 cells. Description: PC12 cell death induced by MPP+. Type of data set: cell-based. To be noted: concentrations of 0.1 to 10 μM; FIGS. 3A and 3B. From the text:
(§1) FIG. 3 illustrates that uric acid and a compound of formula (I) protect cultured neural cells against oxidative and excitotoxic injury in an embodiment of the invention. Cultured PC12 cells are pretreated with uric acid (FIG. 3A) or mUA3 (FIG. 3B). Cultured hippocampal neurons are pretreated with uric acid (FIG. 3C) or mUA3 (FIG. 3D). Cell survival is quantified and values are the mean and SEM of 4-8 cultures. *p<0.05 compared to 0 uric acid or mUA3 concentration.
(§2) Methods for preparation and maintenance of cultures of PC12 cells and primary embryonic rat hippocampal neurons have been described previously (Furukawa et al., J. Neurosci., 17, 8178-8186 (1997) and Chan et al., J. Biol. Chem., 279, 28733-28743 (2004)). Cells are plated into polyethylenimine-coated plastic 96-well culture plates containing Neurobasal medium with B27 supplements. Experiments are performed in 7-8 day-old cultures (hippocampal neurons) or Dulbecco's modified eagle's medium (DMEM) with 10% fetal bovine serum (PC12 cells). Hippocampal neurons and PC12 cells are plated 7 days and 3 days prior to experiments, respectively. […] Cell viability is quantified by counting viable neurons in premarked microscope fields prior to and following experimental treatment and then calculating percent survival. […]

In data set [8] the test system is PC12 cells. The experiment in a line: PC12 cell death induced by Fe2+. The class given is cell-based. To be noted: concentrations of 0.1 to 10 μM; FIGS. 3A and 3B.
Source text: as §1, §2

Data set [9] deals with primary hippocampal neurons. Description: Hippocampal neuron death induced by Fe2+. To be noted: FIGS. 3C and 3D. Type of data set: cell-based, rat.
Source text: as §1, §2

The subject of data set [10] is primary hippocampal neurons. Description: Hippocampal neuron death induced by glutamate excitotoxicity. The class given is cell-based, rat. To be noted: FIGS. 3C and 3D.
Source text: as §1, §2

≈ marks a conversion by molar mass, not a printed value.

In [1], `O=c1[nH]c(=S)c2[nH]c(=S)[nH]c2[nH]1` [sUA2, 6,8 dithio uric acid] yielded a solubility of 2000 µg/mL (≈ 9.99 mM). The Kp in data set [2] (male, C57BL/6, mouse, brain (cerebral cortical tissue) / plasma, early time points (15-30 min), read-out: brain tissue concentration as percentage of plasma concentration) is approximately 0.1. The “detection in the brain” value in data set [2] (equimolar to 10 mg/kg uric acid, 15, 30, 60 and 120 min) was “detected in the brain at all time points examined”. Also, the “brain concentration time course versus plasma” value in data set [2] (through the 120 min time point) was “remain elevated while plasma concentrations decrease progressively”. Further, the “resistance to OGD induced death” value in data set [3] is listed as “significantly more resistant”. Also, the “functional outcome (neurological deficit score)” value in [4] (FIG. 5A) is “significantly improve functional outcome”. For the same compound, in [4] (FIG. 5B), the brain damage entry was “decrease brain damage”. In data set [5], the “time to wound closure post wounding” value was found to be 8 days.
`O=c1[nH]c(=O)c2[nH]c(=O)[nH]c2[nH]1` [uric acid] came in with a solubility in data set [1] of 100 µg/mL (≈ 0.595 mM). Also, in data set [6], the “levels of ROS in synaptosomes” value is “significantly diminished”. The “protection of PC12 cells against MPP+” value in data set [7] is reported as “protected”. In addition, the “protection of PC12 cells against Fe2+” value in data set [8] is “protected”. In addition, the “protection of primary hippocampal neurons against death induced by Fe2+” value in [9] is listed as “protected”. Besides, in data set [10], the “protection of primary hippocampal neurons against glutamate excitotoxicity” value is on record as “protected”.

In general, solubility refers to the concentration that dissolves in the medium under given conditions.
